According to patent US6645983B1, “Pharmaceutical compositions comprising 4-quinolones for treating cancers” (Laboratoire L. Lafon, priority 1999, dated 2003):

Key:
[1] = Determination of the maximum tolerated dose (MTD); conditions: B6D2F1/Jico, mouse, in vivo, ip; single intraperitoneal administration, doses 2.5 to 160 mg/kg, survival over 14 days
Experimental: The evaluation of the maximum tolerated dose was performed on 4- to 6-week-old B6D2F1/Jico mice. The compounds were administered intraperitoneally at increasing doses ranging from 2.5 to 160 mg/kg. The value of the MTD (expressed in mg/kg) is determined from the observation of the survival rate of the animals over a 14-day period after a single administration of the product under consideration. The change in weight of the animals is also monitored during this period. When the MTD value is greater than 160 mg/kg, the MTD value is considered as being 160 mg/kg by default.

SW1088 = test: MTT test, cytotoxic activity on non-clonogenic cell lines; format: cell-based; conditions: Homo sapiens, 10^−5 M, 72 hours of incubation, control condition = 100%, mean value, read-out: mean optical density as percentage of control, SW1088
Experimental: (§1) The principle of the MTT test is based on the mitochondrial reduction, by the metabolically active live cells, of the yellow-colored product MTT (3-(4,5-dimethylthiazol-2-yl)-2,5-diphenyltetrazolium bromide) to a blue-colored product, formazan. The amount of formazan thus obtained is directly proportional to the amount of live cells present in the culture well(s). This amount of formazan is measured by spectrophotometry.
(§2) The cell lines are maintained as a monolayer culture at 37° C. in stoppered culture dishes containing MEM 25 MM HEPES (Minimum Essential Medium) base medium. This medium is suited to the growth of a range of various mammalian diploid or primary cells. This medium is then supplemented with:
(§3) The 12 human cancer cell lines which were used were obtained from the American Type Culture Collection (ATCC, Rockville, Md., USA). These 12 cell lines are:
SW1088 (code ATCC: HTB-12) which is an astro-cytoma,
(§4) Experimentally, 100 μl of a cell suspension containing 20 000 to 50 000 (depending on the cell type used) cells/ml of culture medium are inoculated -in 96-well flat-bottomed multi-well plates and are left to stand in an incubator at 37° C., 5% CO2 and 70% humidity. After an incubation time of 24 hours, the culture medium is replaced with 100 μl of fresh medium containing either the various test compounds—at concentrations varying from 10^−5 to 10^−10 M—or the solvent having served for dissolving the products to be tested (control condition). […] The microplates are thus incubated for 3 hours at 37° C., then centrifuged for 10 minutes at 400 g. The yellowish solution of MTT is removed and the blue formazan crystals formed in the cell region are dissolved in 100 μl or DMSO. The microplates are then shaken for 5 minutes. […] Software incorporated in the spectrophotometer calculates the average optical density values and the standard deviation (SD) and standard error of mean (SEM) values.

T24 = test: as above; format: cell-based; conditions: Homo sapiens, T-24; 10^−5 M, 72 hours of incubation, control condition = 100%, mean value; read-out: mean optical density as percentage of control, T24
Experimental: as §1, §2, §3
(§5) J82 (code ATCC: HTB-1) and T24 (code ATCC: HTB-4) which are two bladder cancers,
as §4

J82 = test: as above; format: cell-based; conditions: Homo sapiens, 10^−5 M, 72 hours of incubation, control condition = 100%, mean value, read-out: mean optical density as percentage of control, J82
Experimental: as §1, §2, §3, §5, §4

U-87MG = test: as above; format: cell-based; conditions: Homo sapiens, U-87 MG; 10^−5 M, 72 hours of incubation, control condition = 100%, mean value; read-out: mean optical density as percentage of control, U-87MG
Experimental: as §1, §2, §3, §4

HCT-15 = test: as above; format: cell-based; conditions: Homo sapiens, 10^−5 M, 72 hours of incubation, control condition = 100%, mean value, read-out: mean optical density as percentage of control, HCT-16
Experimental: as §1, §2, §3, §4

MCF7 = test: as above; format: cell-based; conditions: Homo sapiens, 10^−5 M, 72 hours of incubation, control condition = 100%, mean value, read-out: mean optical density as percentage of control, MCF7
Experimental: as §1, §2, §3, §4

LoVo = test: as above; format: cell-based; conditions: Homo sapiens, 10^−5 M, 72 hours of incubation, control condition = 100%, mean value, read-out: mean optical density as percentage of control, LoVo
Experimental: as §1, §2, §3, §4

PC-3 = test: as above; format: cell-based; conditions: Homo sapiens, 10^−5 M, 72 hours of incubation, control condition = 100%, mean value, read-out: mean optical density as percentage of control, PC-3
Experimental: as §1, §2, §3, §4

A549 = test: as above; format: cell-based; conditions: Homo sapiens, 10^−5 M, 72 hours of incubation, control condition = 100%, mean value, read-out: mean optical density as percentage of control, A549
Experimental: as §1, §2, §3, §4

A-427 = test: as above; format: cell-based; conditions: Homo sapiens, 10^−5 M, 72 hours of incubation, control condition = 100%, mean value, read-out: mean optical density as percentage of control, A-427
Experimental: as §1, §2, §3, §4

U-373MG = test: as above; format: cell-based; conditions: Homo sapiens, U373 MG; 10^−5 M, 72 hours of incubation, control condition = 100%, mean value; read-out: mean optical density as percentage of control, U-373MG
Experimental: as §1, §2, §3, §4

T-47D = test: as above; format: cell-based; conditions: Homo sapiens, T47D; 10^−5 M, 72 hours of incubation, control condition = 100%, mean value; read-out: mean optical density as percentage of control, T-47D
Experimental: as §1, §2, §3, §4

| SMILES | MTD at 14 day [1] [mg/kg] | viability at 10 µM (SW1088) [%] | viability at 10 µM (T24) [%] | viability at 10 µM (J82) [%] | viability at 10 µM (U-87MG) [%] | viability at 10 µM (HCT-15) [%] | viability at 10 µM (MCF7) [%] | viability at 10 µM (LoVo) [%] | viability at 10 µM (PC-3) [%] | viability at 10 µM (A549) [%] | viability at 10 µM (A-427) [%] | viability at 10 µM (U-373MG) [%] | viability at 10 µM (T-47D) [%] |
| --- | --- | --- | --- | --- | --- | --- | --- | --- | --- | --- | --- | --- | --- |
| O=c1c(-c2ccccc2)c[nH]c2ccccc12 [CRL8326, 3-Phenyl-1,4-dihydro-4-quinolinone] | > 160 | 108 | 92.6 | 86.9 | 102 | 110 | 94.1 | 67.7 | 95.4 | 104 | 101 | 96.9 | 50.2 |
| COc1ccc(-c2c[nH]c3ccccc3c2=O)cc1 [CRL8327, 3-(4-Methoxyphenyl)-1,4-dihydro-4-quinolinone] | > 160 | 99 | 187 | 85.1 | 89 | 87.5 | 90.7 | 47.3 | 87.4 | 71.5 | 77.5 | 58.7 | 79 |
| COc1cccc2c(=O)c(-c3ccccc3)c[nH]c12 [CRL8328, 8-Methoxy-3-phenyl-1,4-dihydro-4-quinolinone] | 80 | 91 | 94.8 | 95.9 | 85.7 | 85.8 | 93.7 | 94.3 | 91.9 | 92.5 | 101 | 98.1 | 96 |
| COc1ccc(-c2c[nH]c3c(OC)cccc3c2=O)cc1 [CRL8329, 8-Methoxy-3-(4-methoxyphenyl)-1,4-dihydro-4-quinolinone] | > 160 | 96.2 | 95.4 | 96.8 | 1.38 | 98 | 96.3 | 94.6 | 93.1 | 96.5 | 102 | 94 | 78.5 |
| COc1ccc(-c2c[nH]c3cc(OC)cc(OC)c3c2=O)cc1 [CRL8337, 5,7-Dimethoxy-3-(4-methoxyphenyl)-1,4-dihydro-4-quinolinone] | > 160 | 84.9 | 102 | 90.9 | 84.4 | 98.5 | 76.5 | 93.3 | 92.8 | 96.9 | 106 | 95.6 | 79.4 |
| COc1ccc(-c2cn(C)c3cc(OC)cc(OC)c3c2=O)cc1 [CRL8340, 5,7-Dimethoxy-3-(4-methoxyphenyl)-1-methyl-1,4-dihydro-4-quinolinone] | > 160 | 84 | 82.8 | 90.2 | 87.6 | 92.5 | 72.3 | 93 | 84.8 | 84 | 84.2 | 97.9 | 66.1 |
| CCN(CC)C(=O)Cn1cc(-c2ccc(OC)cc2)c(=O)c2c(OC)cc(OC)cc21 [CRL8349, N,N-Diethyl-2-[5,7-dimethoxy-3-(4-methoxyphenyl)-4-oxo-1,4-dihydro-1-quinolinyl]acetamide] | > 160 | 100 | 95.1 | 93.3 | 98.3 | 91.2 | 97.4 | 104 | 98.6 | 96.2 | 90.7 | 66.7 | 91 |
| COc1ccc(-c2cn(CCN(C)C)c3cc(OC)cc(OC)c3c2=O)cc1 [CRL8350, N-[3-(Dimethylamino)ethyl]-5,7-dimethoxy-3-(4-methoxyphenyl)-1,4-dihydro-4-quinolinone] | > 160 | 101 | 86.9 | 91.5 | 85.6 | 95.3 | 181 | 92 | 95.3 | 93 | 99.5 | 59.5 | 87.1 |
| COc1ccc(-c2c[nH]c3c(OC)ccc(OC)c3c2=O)cc1 [CRL8351, 5,8-Dimethoxy-3-(4-methoxyphenyl)-1,4-dihydro-4-quinolinone] | 40 | 82.3 | 38.4 | 39.2 | 116 | 39.1 | 49 | 67 | 83.2 | 34.6 | 33.7 | 52.8 | 55 |
| COc1cc(OC)c2c(=O)c(-c3ccccc3)c[nH]c2c1 [CRL8352, 5,7-Dimethoxy-3-phenyl-1,4-dihydro-4-quinolinone] | > 160 | 96.8 | 83.7 | 93 | 158 | 106 | 85.6 | 103 | 97.3 | 94.2 | 103 | 104 | 105 |
| COc1ccc(OC)c2c(=O)c(-c3ccccc3)c[nH]c12 [CRL8353, 5,8-Dimethoxy-3-phenyl-1,4-dihydro-4-quinolinone] | > 160 | 74 | 68.6 | 79.1 | 107 | 55.7 | 49.6 | 85.5 | 81 | 42.3 | 52.5 | 54.5 | 87.2 |
